Columns and labels:
Assay type in all cases: in vivo
[1] = test system: Echinochloa crus-galli (ECHCG); assay: Biological Example 1 glasshouse screen, post-emergence herbicidal activity; conditions: 312 h, application rate 250 g/ha, evaluated after 13 days, read-out: ECHCG percentage phytotoxicity
Method: (§1) Seeds of a variety of test species were sown in standard soil in pots. After cultivation for one day (pre-emergence) or after 8 days cultivation (post-emergence) under controlled conditions in a glasshouse (at 24/16°C., day/night; 14 hours light; 65% humidity), the plants were sprayed with an aqueous spray solution derived from the formulation of the “technical”(i.e. unformulated) active ingredient in acetone/water (50:50) solution containing 0.5% Tween 20 (polyoxyethylene sorbitan monolaurate, CAS Registry Number 9005-64-5). The test plants were then grown in a glasshouse under controlled conditions in a glasshouse (at 24/16°C., day/night; 14 hours light; 65% humidity) and watered twice daily. After 13 days for pre- or post-emergence, the test was evaluated visually, and an assessed percentage phytotoxicity score given for each herbicidal application on each plant/weed species (with 100%=total damage to plant; 0%=no damage to plant).
(§2) Test plants: Alopecurus myosuroides (ALOMY), Setaria faberi (SETFA), Echinochloa crus-galli (ECHCG), Solanum nigrum (SOLNI), Amaranthus retroflexus (AMARE) and Ipomoea hederacea (IPOHE). ALOMY, SETFA and ECHCG are grassy monocotyledonous weeds. SOLNI, AMARE and IPOHE are dicotyledonous (broadleaved) weeds.
(§3) Test plants: Lolium perenne (LOLPE), Alopecurus myosuroides (ALOMY), Echinochloa crus-galli (ECHCG), and Avena fatua (AVEFA). All four of these are grassy monocotyledonous weeds.

[2] = test system: Alopecurus myosuroides (ALOMY); assay: as above; conditions: 312 h, application rate 250 g/ha, evaluated after 13 days, read-out: ALOMY percentage phytotoxicity
Method: as §1, §2, §3

[3] = test system: Triticum aestivum, wheat (TRZAW); assay: Biological Example 3 glasshouse screen, post-emergence, phytotoxicity on wheat; conditions: 360 h, 15 DAA, no safener, read-out: TRZAW percentage phytotoxicity; for pest or weed control at 30 g/ha: application rate 30 g/ha
Method: (§4) Test Method: Seeds of a variety of test species are sown in standard soil in pots. After cultivation for one day (pre-emergence) or after 12 days cultivation (post-emergence) under controlled conditions in a glasshouse (warm climate species at 24/18°C., cool climate species at 20/16°C., both at day/night; 16 hours light; 65% humidity), the plants are sprayed with an aqueous spray solution derived from the formulation of the “technical”(i.e. unformulated) active ingredient dissolved in acetone plus IF50, at a 1:20 ratio of “technical”active ingredient to IF50. The IF50 contains about 10.56 weight % Emulsogen EL™(castor oil ethoxylate, CAS Registry number 61791-12-6), about 42.22 weight % N-methylpyrrolidone, and about 42.22 weight % DPG-Monoethyl ether (dipropylene glycol mono-ethyl ether). The adjuvant X-77 (a mixture of alkyl aryl polyoxyethylene glycols and free fatty acids in isopropanol, CAS Registry number 11097-66-8) is added to the aqueous spray solution to form a 0.2% v/v solution, before spraying onto the plants.
(§5) The test plants are then grown in a glasshouse under controlled conditions in a glasshouse (at 24/18°C. or 20/16°C., day/night; 16 hours light; 65% humidity) and watered twice daily. After 15 days after application of the herbicide (15 DAA) (for post-emergence), and after 20 DAA (for pre-emergence), the test is evaluated visually, and an assessed percentage phytotoxicity score is given for each herbicidal application on each plant/weed species (with 100%=total damage to plant; 0%=no damage to plant).
These give an approximate indication of the level of selectivity on wheat for these tested compounds, when a herbicide safener such as cloquintocet-mexyl is not used: […]

[4] = test system: Avena fatua, wild oats (AVEFA); assay: Biological Example 3 glasshouse screen, post-emergence herbicidal activity; conditions: 360 h, 15 DAA, no safener, read-out: AVEFA percentage phytotoxicity; for pest or weed control at 30 g/ha: application rate 30 g/ha
Method: as §4
as §5, with “plant). […]” for “plant).”

[5] = test system: Lolium perenne, perennial ryegrass (LOLPE); assay: as above; conditions: 360 h, 15 DAA, no safener, read-out: LOLPE percentage phytotoxicity; for pest or weed control at 30 g/ha: application rate 30 g/ha
Method: as §4
as §5, with “plant). […]” for “plant).”

[6] = test system: Echinochloa crus galli, barnyardgrass (ECHCG); assay: as above; conditions: 360 h, 15 DAA, no safener, read-out: ECHCG percentage phytotoxicity; for pest or weed control at 30 g/ha: application rate 30 g/ha
Method: as §4
as §5, with “plant). […]” for “plant).”

[7] = test system: Alopecurus myosuroides, blackgrass (ALOMY); assay: as above; conditions: 360 h, 15 DAA, no safener, read-out: ALOMY percentage phytotoxicity; for pest or weed control at 30 g/ha: application rate 30 g/ha
Method: as §4
as §5, with “plant). […]” for “plant).”

[8] = test system: Avena fatua (AVEFA); assay: Biological Example 1 glasshouse screen, post-emergence herbicidal activity; conditions: 312 h, application rate 250 g/ha, evaluated after 13 days, read-out: AVEFA percentage phytotoxicity
Method: as §1, §3

[9] = test system: Lolium perenne (LOLPE); assay: as above; conditions: 312 h, application rate 250 g/ha, evaluated after 13 days, read-out: LOLPE percentage phytotoxicity
Method: as §1, §3

[10] = test system: Avena fatua (AVEFA); assay: Biological Example 1 glasshouse screen, pre-emergence herbicidal activity; conditions: 312 h, application rate 250 g/ha, evaluated after 13 days, read-out: AVEFA percentage phytotoxicity
Method: as §1, §3

[11] = test system: Lolium perenne (LOLPE); assay: as above; conditions: 312 h, application rate 250 g/ha, evaluated after 13 days, read-out: LOLPE percentage phytotoxicity
Method: as §1, §3

[12] = test system: Echinochloa crus-galli (ECHCG); assay: as above; conditions: 312 h, application rate 250 g/ha, evaluated after 13 days, read-out: ECHCG percentage phytotoxicity
Method: as §1, §2, §3

[13] = test system: Alopecurus myosuroides (ALOMY); assay: as above; conditions: 312 h, application rate 250 g/ha, evaluated after 13 days, read-out: ALOMY percentage phytotoxicity
Method: as §1, §2, §3

SMILES | pest or weed control at 250 g/ha [1] | pest or weed control at 250 g/ha [2] | pest or weed control at 30 g/ha [3] | pest or weed control at 60 g/ha ([3]; application rate 60 g/ha) | pest or weed control at 30 g/ha [4] | pest or weed control at 60 g/ha ([4]; application rate 60 g/ha) | pest or weed control at 30 g/ha [5] | pest or weed control at 60 g/ha ([5]; application rate 60 g/ha) | pest or weed control at 30 g/ha [6] | pest or weed control at 60 g/ha ([6]; application rate 60 g/ha) | pest or weed control at 30 g/ha [7] | pest or weed control at 60 g/ha ([7]; application rate 60 g/ha) | pest or weed control at 250 g/ha [8] | pest or weed control at 250 g/ha [9] | pest or weed control at 250 g/ha [10] | pest or weed control at 250 g/ha [11] | pest or weed control at 250 g/ha [12] | pest or weed control at 250 g/ha [13]
CC#Cc1cc(C)c(C2=C(O)CC(Cc3cccc(F)n3)C2=O)c(C)c1 (stereo not drawn) [Compound A-7] | 100% | 100% | 40% | 50% | 40% | 50% | 80% | 90% | 80% | 100% | 70% | 80% | 90% | 100% | – | – | – | –
CC#Cc1cc(C)c(C2=C(O)CC(Cc3cccc(C#N)n3)C2=O)c(C)c1 (stereo not drawn) [Compound A-12] | 100% | 90% | – | – | – | – | – | – | – | – | – | – | 100% | 90% | 80% | 90% | 100% | 90%
CC#Cc1cc(C)c(C2=C(O)CC(Cc3ccc(C(C)=O)cn3)C2=O)c(C)c1 (stereo not drawn) [Compound A-13] | 100% | 70% | – | – | – | – | – | – | – | – | – | – | 80% | 80% | 80% | 80% | 100% | 80%
C#CCC1CC(=O)C(c2c(C)cc(C#CC)cc2C)C1=O (stereo not drawn) [Compound A-20] | 100% | 100% | – | – | – | – | – | – | – | – | – | – | 90% | 100% | 90% | 100% | 100% | 100%
CC#CCC1CC(=O)C(c2c(C)cc(C#CC)cc2C)C1=O (stereo not drawn) [Compound A-21] | 100% | 100% | – | – | – | – | – | – | – | – | – | – | 80% | 100% | 60% | 100% | 100% | 100%
CC#Cc1cc(C)c(C2C(=O)CC(CC#CCl)C2=O)c(C)c1 (stereo not drawn) [Compound A-22] | 100% | 60% | – | – | – | – | – | – | – | – | – | – | 0% | 80% | 80% | 90% | 100% | 90%
CC#Cc1cc(C)c(C2C(=O)CC(Cc3ccc(C#N)c(NC)n3)C2=O)c(C)c1 (stereo not drawn) [Compound A-23, 6-[[3-(2,6-dimethyl-4-prop-1-ynyl-phenyl)-2,4-dioxo-cyclopentyl]methyl]-2-(methylamino)pyridine-3-carbonitrile] | 100% | 100% | – | – | – | – | – | – | – | – | – | – | 90% | 90% | 80% | 80% | 100% | 80%
CC#Cc1cc(C)c(C2C(=O)CC(Cc3ccn[nH]3)C2=O)c(C)c1 (stereo not drawn) [Compound A-24] | 100% | 100% | – | – | – | – | – | – | – | – | – | – | 100% | 100% | 80% | 100% | 100% | 100%
C#CCC1CC(=O)C(c2c(C)cc(C#CCl)cc2C)C1=O (stereo not drawn) [Compound A-25] | 100% | 90% | – | – | – | – | – | – | – | – | – | – | 100% | 100% | 70% | 100% | 100% | 90%
CC#Cc1cc(C)c(C2C(=O)CC(Cc3ccc(C#N)cn3)C2=O)c(CC)c1 (stereo not drawn) [Compound A-27] | 100% | 70% | – | – | – | – | – | – | – | – | – | – | 100% | 90% | 90% | 100% | 100% | 90%
CC#Cc1cc(C)c(C2C(=O)CC(Cc3ccc(C#N)cc3)C2=O)c(C)c1 (stereo not drawn) [Compound A-28] | 100% | 90% | – | – | – | – | – | – | – | – | – | – | 80% | 90% | 70% | 90% | 100% | 70%
CC#Cc1cc(C)c(C2C(=O)CC(Cc3ccccc3C#N)C2=O)c(C)c1 (stereo not drawn) [Compound A-29] | 100% | 100% | – | – | – | – | – | – | – | – | – | – | 80% | 100% | 100% | 50% | 80% | 50%
Cc1cc(-c2ccc(F)cc2)cc(C)c1C1C(=O)CC(Cc2ccccn2)C1=O (stereo not drawn) [Compound T71, from WO 2010/069834, reference compound] | – | – | 80% | – | 100% | – | 90% | – | 100% | – | 100% | – | – | – | – | – | – | –
Cc1cc(-c2ccc(F)c(Cl)c2)cc(C)c1C1C(=O)CC(Cc2ccccn2)C1=O (stereo not drawn) [reference compound] | – | – | 70% | – | 90% | – | 70% | – | 90% | – | 100% | – | – | – | – | – | – | –
Cc1cc(-c2ccc(F)cc2)cc(C)c1C1C(=O)CC(Cc2ccc(C#N)cn2)C1=O (stereo not drawn) [reference compound] | – | – | 50% | – | 30% | – | 10% | – | 100% | – | 70% | – | – | – | – | – | – | –
